Experimental data: ChEMBL document CHEMBL3351326, “Discovery of substituted 6-pheny-3H-pyridazin-3-one derivatives as novel c-Met kinase inhibitors” (Bioorg Med Chem Lett, 2014)

Legend:
NCI-H1993 = test: Cytotoxicity against human NCI-H1993 cells after 72 hrs by WST8 assay; details: NCI-H1993, 72 h
[1] = Cytotoxicity against human NCI-H3122 cells after 72 hrs by WST8 assay; details: NCI-H3122, 72 h
[2] = Cytotoxicity against human U87MG cells after 72 hrs by WST8 assay; format: functional, cell-based, U-87MG ATCC; details: U-87 MG
cells = details: Homo sapiens, Hs746T, 72 h
Description: Cytotoxicity against human Hs 746T cells after 72 hrs by WST8 assay

| SMILES | IC50 (cells) [nM] | IC50 (NCI-H1993) [nM] | IC50 [1] [nM] | IC50 [2] [nM] |
| --- | --- | --- | --- | --- |
| Cn1cc(-c2cnc(N3CCO[C@H](Cn4nc(-c5ccc(OCc6ccccc6)cc5)ccc4=O)C3)nc2)cn1 | 3020 | 4100 | > 10000 | 7600 |
| O=c1ccc(-c2cc(F)cc(F)c2)nn1C[C@@H]1CN(c2ncc(-c3cnn(C4CCNCC4)c3)cn2)CCO1 | 450 | 1600 | 1900 | 3200 |
| O=c1ccc(-c2cccc(Cl)c2)nn1C[C@@H]1CN(c2ncc(-c3cnn(C4CCNCC4)c3)cn2)CCO1 | 750 | 3400 | > 10000 | 9900 |
| O=c1ccc(-c2cccc(F)c2)nn1C[C@@H]1CN(c2ncc(-c3cnn(C4CCN(CCO)CC4)c3)cn2)CCO1 | 460 | 3200 | 3300 | 3400 |
| O=c1ccc(-c2ccc(F)cc2)nn1C[C@@H]1CN(c2ncc(-c3cnn(C4CCN(CCO)CC4)c3)cn2)CCO1 | 280 | 3800 | > 10000 | > 10000 |
| CN1CCC(n2cc(-c3cnc(N4CCO[C@H](Cn5nc(-c6cccc(F)c6)ccc5=O)C4)nc3)cn2)CC1 | 460 | 3200 | 3300 | 3400 |
| CN1CCC(n2cc(-c3cnc(N4CCO[C@H](Cn5nc(-c6cc(F)c(F)c(F)c6)ccc5=O)C4)nc3)cn2)CC1 | 480 | 3600 | 7600 | 9100 |
| CN1CCC(n2cc(-c3cnc(N4CCO[C@H](Cn5nc(-c6ccc(F)c(F)c6)ccc5=O)C4)nc3)cn2)CC1 | 940 | 5700 | > 10000 | > 10000 |
| N#Cc1cccc(-c2ccc(=O)n(C[C@@H]3CN(c4ncc(-c5cnn(CCOC6CCCCO6)c5)cn4)CCO3)n2)c1 (some centres undefined) | 460 | 2600 | > 10000 | > 10000 |
| CN1CCC(COc2cnc(N3CCO[C@H](Cn4nc(-c5cccc(C#N)c5)ccc4=O)C3)nc2)CC1 | 430 | 2400 | > 10000 | > 10000 |
| N#Cc1cccc(-c2ccc(=O)n(C[C@@H]3CN(c4ncc(C5=CCNCC5)cn4)CCO3)n2)c1 | 740 | 3800 | > 10000 | 9700 |
| CN1CC=C(c2cnc(N3CCO[C@H](Cn4nc(-c5cccc(C#N)c5)ccc4=O)C3)nc2)CC1 | 1200 | 4100 | > 10000 | > 10000 |
| N#Cc1cccc(-c2ccc(=O)n(C[C@@H]3CN(c4ncc(-c5ccc(OCCN6CCOCC6)cc5)cn4)CCO3)n2)c1 | 410 | 1800 | > 10000 | 3400 |
| N#Cc1cccc(-c2ccc(=O)n(C[C@@H]3CN(c4ncc(-c5ccc(OCCN6CCOCC6)c(Cl)c5)cn4)CCO3)n2)c1 | 1420 | 1200 | > 10000 | 1400 |
| N#Cc1cccc(-c2ccc(=O)n(C[C@@H]3CN(c4ncc(-c5ccnc(F)c5)cn4)CCO3)n2)c1 | 7150 | 7400 | > 10000 | > 10000 |
| CN1CCN(c2ccc(-c3cnc(N4CCO[C@H](Cn5nc(-c6cccc(C#N)c6)ccc5=O)C4)nc3)cn2)CC1 | 650 | 1300 | 1400 | 1600 |
| N#Cc1cccc(-c2ccc(=O)n(C[C@@H]3CN(c4ncc(-c5ccc(OCCN6CCOCC6)nc5)cn4)CCO3)n2)c1 | 740 | 3700 | 9800 | – |

Compounds with a lower IC50 (cells), results first:

| IC50 (cells) [nM] | SMILES | IC50 (NCI-H1993) [nM] | IC50 [1] [nM] | IC50 [2] [nM] |
| --- | --- | --- | --- | --- |
| 230 | O=c1ccc(-c2cc(F)c(F)c(F)c2)nn1C[C@@H]1CN(c2ncc(-c3cnn(C4CCNCC4)c3)cn2)CCO1 | 1200 | 1500 | 1500 |
| 220 | O=c1ccc(-c2cccc(F)c2)nn1C[C@@H]1CN(c2ncc(-c3cnn(C4CCNCC4)c3)cn2)CCO1 | 3500 | 7500 | 4900 |
| 210 | N#Cc1cccc(-c2ccc(=O)n(C[C@@H]3CN(c4ncc(C5=CCN(CCO)CC5)cn4)CCO3)n2)c1 | 2500 | > 10000 | > 10000 |
| 190 | O=c1ccc(-c2cc(F)c(F)c(F)c2)nn1C[C@@H]1CN(c2ncc(-c3cnn(C4CCN(CCO)CC4)c3)cn2)CCO1 | – | > 10000 | 4070 |
| 180 | N#Cc1cccc(-c2ccc(=O)n(C[C@@H]3CN(c4ncc(-c5cnn(CCO)c5)cn4)CCO3)n2)c1 | 1500 | > 10000 | > 10000 |
| 84 | O=c1ccc(-c2cccc(C(F)(F)F)c2)nn1C[C@@H]1CN(c2ncc(-c3cnn(C4CCNCC4)c3)cn2)CCO1 | 1300 | 1400 | 2500 |
| 71 | O=c1ccc(-c2ccc(F)c(Cl)c2)nn1C[C@@H]1CN(c2ncc(-c3cnn(C4CCNCC4)c3)cn2)CCO1 | 790 | 1700 | 1200 |
| 14 | CN1CCC(n2cc(-c3cnc(N4CCO[C@H](Cn5nc(-c6ccc(F)c(Cl)c6)ccc5=O)C4)nc3)cn2)CC1 | 1200 | 1400 | 1500 |
| 13 | N#Cc1cccc(-c2ccc(=O)n(C[C@@H]3CN(c4ncc(-c5cnn(C6CCN(C7CCOCC7)CC6)c5)cn4)CCO3)n2)c1 | 230 | > 10000 | > 10000 |
| 3.4 | N#Cc1cccc(-c2ccc(=O)n(C[C@@H]3CN(c4ncc(-c5cnn(CC6CCN(CCO)CC6)c5)cn4)CCO3)n2)c1 | 2100 | > 10000 | > 10000 |
| 1.2 | N#Cc1cccc(-c2ccc(=O)n(C[C@@H]3CN(c4ncc(-c5cnn(C6CCNCC6)c5)cn4)CCO3)n2)c1 | 110 | > 10000 | > 10000 |
| 0.7 | Cn1cc(-c2cnc(N3CCO[C@H](Cn4nc(-c5cccc(C#N)c5)ccc4=O)C3)nc2)cn1 | 10 | > 1000 | > 1000 |
